# Data published in patent publication US20240287052A1, “NOVEL OXAZOLE DERIVATIVE AND PHARMACEUTICAL COMPOSITION FOR PREVENTING OR TREATING ALLERGIC DISEASES COMPRISING THE SAME” (AZCURIS CO., LTD., priority 2021, published 2024).
# Read-outs that look alike come from different tables or passages of the source.
# Assays:
# IL33 and ST2 binding [1] = molecular target: T1, IL33 and ST2 binding (Homo sapiens, UniProt O95760);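 note: plate ELISA with coated Flag-tagged human IL-33 and His-tagged human ST2, bound ST2 detected by anti-His HRP and TMB absorbance at 450 nm, 2 h compound incubation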
# T1 sequence (O95760 112-270 limits assumed): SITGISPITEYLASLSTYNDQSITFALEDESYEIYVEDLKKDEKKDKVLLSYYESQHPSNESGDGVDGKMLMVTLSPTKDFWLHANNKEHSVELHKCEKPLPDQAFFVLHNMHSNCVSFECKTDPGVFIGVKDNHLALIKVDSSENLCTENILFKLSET
# [2] = system: IL-6 secretion in the human mast cell line HMC 1.1; assay: IL-6 production inhibition assay (IL-33 stimulated HMC 1.1 cells, IL-6 ELISA); format: cell-based; settings: for inhibition at 0.1 µM: 0.1 μM compound, read-out: Inhibition of hIL-6 production (%) 0.1 μM; for inhibition at 0.1 µM / inhibition at 1 µM / inhibition at 10 µM: 24 hours; for inhibition at 1 µM: 1 μM compound, read-out: Inhibition of hIL-6 production (%) 1 μM; for inhibition at 10 µM: 10 μM compound, read-out: Inhibition of hIL-6 production (%) 10 μM; for EC50: read-out: Inhibition of hIL-6 production EC50
# Description: Human mast cell line HMC 1.1 cells were cultured in medium (Iscove's Modified Dulbecco's Medium, IMDM, HyClone) supplemented with […] fetal bovine serum (FBS, HyClone) and 1% antibiotics and maintained at 37° C. with 5% CO2.
# HMC 1.1 cells, which are non-adherent cells, were cultured in 0.5 mL of culture medium containing 200 nM of IL-33 wild type human recombinant protein after centrifugation of cells in culture flasks filled to […] capacity and incubated for 24 hours with […], 10 μM, 25 μM, 30 μM or 50 μM of Example compound.
# Medium was harvested by centrifugation (2,000×g, 5 min) and stored at −80° C. until ELISA assay.
# Experiments were performed according to the protocol using the Human IL-6 ELISA kit (abCam).
# The average of the three values obtained in triplicate was calculated and the amount of IL-6 secretion was measured using a standard curve. The measured IL-6 secretion was converted to 100% based on the vehicle treatment sample value to obtain the vehicle %.
# [3] = system: Human liver cancer cell line HepG2 cells; assay: Cellular viability, WST-8 assay, without or with human liver microsomes; format: cell-based; settings: for Cellular viability (%) (+) microsome: HepG2, with human liver microsomes; for Cellular viability (%) (−) microsome: HepG2, without human liver microsomes
# Description: (§1) Human liver cancer cell line HepG2 cells were cultured in a medium (high glucose Dulbecco's Modified Eagle Medium, DMEM, HyClone) supplemented with 10% fetal bovine serum (FBS, HyClone) and 1% antibiotic in a thermostat maintained at 37° C. with 5% CO2.
# (§2) HepG2 cells, which are adherent cells, were […] or presence of human liver microsomes (Gibco) and NADPH regenerating system.
# (§3) Cell cultures were exchanged using […] of medium (high glucose Dulbecco's Modified Eagle Medium, DMEM, HyClone) and incubated for 24 hours.
# (§4) After adding 10 μL of WST-8 (abCam), the absorbance was obtained at 460 nm after 5 seconds of orbital shaking with a microplate reader (Tecan, Spark©) 2 hours later.
# (§5) The mean of the three values obtained in triplicate was calculated and expressed as % cellular viability compared to vehicle treatment.
# [4] = as above; format: cell-based
# Description: as §1, §2, §3, §4, §5
# IL33 and ST2 binding [5] = molecular target: T1, IL33 and ST2 binding; assay: biochemical
# [6] = HepG2, with human liver microsomes, read-out: CC50 (μM) (+) microsome
# [7] = HepG2 cells, HepG2, without human liver microsomes, read-out: CC50 (μM) (−) microsome
SMILES,inhibition (IL33 and ST2 binding [1]; 30 µM) [%],EC50 [2] [µM],inhibition (IL33 and ST2 binding [1]; 100 µM) [%],inhibition at 1 µM [2] [%],inhibition at 10 µM [2] [%],Cellular viability (%) (+) microsome ([3]; at 160 μM) [at %],Cellular viability (%) (−) microsome ([3]; at 160 μM) [at %],Cellular viability (%) (+) microsome ([3]; at 100 μM) [at %],Cellular viability (%) (−) microsome ([3]; at 100 μM) [at %],other results
"CCOC(=O)c1nc(-c2ccc(SC)cc2)oc1-c1ccccc1 [Compound 90, Ethyl 2-(4-(methylthio)phenyl)-5-phenyloxazole-4-carboxylate]",,0.49,,54,55,,,,,"inhibition at 0.1 µM [2]: 33%; CC50 at 24 h [4, 6]: 40.8 µM; CC50 at 24 h [4, 7]: 14 µM; Cellular viability (%) (+) microsome ([3]; at 135 μM): 74 at %; Cellular viability (%) (−) microsome ([3]; at 135 μM): 53 at %"
"CCOC(=O)c1nc(-c2ccc(Cl)c(C(F)(F)F)c2)oc1-c1ccccc1 [Compound 98, Ethyl 2-(4-chloro-3-(trifluoromethyl)phenyl)-5-phenyloxazole-4-carboxylate]",110,,110,-12,30,,,90,83,IC50 (IL33 and ST2 binding [5]): 5.21 µM
"CCOC(=O)c1nc(-c2ccc(C(F)(F)F)cc2)oc1-c1cccc(C#N)c1 [Compound 55, Ethyl 5-(3-cyanophenyl)-2-(4-(trifluoromethyl)phenyl)oxazole-4-carboxylate]",115,0.09,116,45,52,,,91,90,
"CCNC(=O)c1nc(-c2ccc(C(F)(F)F)cc2)oc1-c1cc(O)cc(O)c1 [Compound 322, 5-(3,5-Dihydroxyphenyl)-N-ethyl-2-(4-(trifluoromethyl)phenyl)oxazole-4-carboxamide]",,,,86,73,90,63,,,
"CCOC(=O)c1nc(-c2ccc(C(F)(F)F)cc2)oc1-c1ccc([N+](=O)[O-])cc1 [Compound 34, Ethyl 5-(4-nitrophenyl)-2-(4-(trifluoromethyl)phenyl)oxazole-4-carboxylate]",108,,108,,,,,85,87,IC50 (IL33 and ST2 binding [5]): 0.91 µM
"CCNC(=O)c1nc(-c2ccc(C(F)(F)F)cc2)oc1-c1cc(O)c(O)c(O)c1 [Compound 323, N-Ethyl-2-(4-(trifluoromethyl)phenyl)-5-(3,4,5-trihydroxyphenyl)oxazole-4-carboxamide]",,,,45,84,77,63,,,
"CCOC(=O)c1nc(-c2ccc(C(F)(F)F)cc2)oc1-c1ccccc1[N+](=O)[O-] [Compound 32, Ethyl 5-(2-nitrophenyl)-2-(4-(trifluoromethyl)phenyl)oxazole-4-carboxylate]",107,,108,,,,,,,Cellular viability (%) (+) microsome ([3]; at 25 μM): 95 at %; Cellular viability (%) (−) microsome ([3]; at 25 μM): 81 at %
"CN(C)CCNC(=O)c1nc(-c2ccc(OC(F)(F)F)cc2)oc1-c1ccccc1 [Compound 203, N-(2-(Dimethylamino)ethyl)-5-phenyl-2-(4-(trifluoromethoxy)phenyl)oxazole-4-carboxamide]",-9,,14,,,,,,,Cellular viability (%) (+) microsome ([3]; at 50 μM): 30 at %; Cellular viability (%) (−) microsome ([3]; at 50 μM): 19 at %
"CCCNC(=O)c1nc(-c2ccc(C(F)(F)F)cc2)oc1-c1cccnc1 [Compound 308, N-Propyl-5-(pyridin-3-yl)-2-(4-(trifluoromethyl)phenyl)oxazole-4-carboxamide]",,,,56,62,29,27,,,
"CCCNC(=O)c1nc(-c2ccc(SC)cc2)oc1-c1ccccc1 [Compound 317, 2-(4-(Methylthio)phenyl)-5-phenyl-N-propyloxazole-4-carboxamide]",,,,44,43,89,47,,,

# Continued, in another order:
inhibition (IL33 and ST2 binding [1]; 30 µM) [%],EC50 [2] [µM],inhibition (IL33 and ST2 binding [1]; 100 µM) [%],SMILES,inhibition at 1 µM [2] [%],inhibition at 10 µM [2] [%],Cellular viability (%) (+) microsome ([3]; at 160 μM) [at %],Cellular viability (%) (−) microsome ([3]; at 160 μM) [at %],Cellular viability (%) (+) microsome ([3]; at 100 μM) [at %],Cellular viability (%) (−) microsome ([3]; at 100 μM) [at %],other results
95,0.13,,"CCNC(=O)c1nc(-c2ccc(C(F)(F)F)cc2)oc1-c1ccccc1 [Compound 294, N-Ethyl-5-phenyl-2-(4-(trifluoromethyl)phenyl)oxazole-4-carboxamide]",88,94,90,95,,,inhibition at 0.1 µM [2]: 50%
112,0.49,111,"CCNC(=O)c1nc(-c2ccc(C(F)(F)F)cc2)oc1-c1cccc(SC)c1 [Compound 291, N-Ethyl-5-(3-(methylthio)phenyl)-2-(4-(trifluoromethyl)phenyl)oxazole-4-carboxamide]",40,66,102,106,,,IC50 (IL33 and ST2 binding [5]): 0.64 µM; inhibition at 0.1 µM [2]: 25%
40,6.3,103,"CN1CCN(CCNC(=O)c2nc(-c3cc(F)cc(F)c3)oc2-c2ccccc2[N+](=O)[O-])CC1 [Compound 238, 2-(3,5-Difluorophenyl)-N-(2-(4-methylpiperazin-1-yl)ethyl)-5-(2-nitrophenyl)oxazole-4-carboxamide]",14,45,,,53,49,"CC50 at 24 h [4, 6]: 21.3 µM; CC50 at 24 h [4, 7]: 19 µM"
106,0.11,,"CCNC(=O)c1nc(-c2ccc(C(F)(F)F)cc2)oc1-c1cccnc1 [Compound 307, N-Ethyl-5-(pyridin-3-yl)-2-(4-(trifluoromethyl)phenyl)oxazole-4-carboxamide]",69,79,108,105,,,inhibition at 0.1 µM [2]: 61%
33,,63,"CN(C)CCN1CCN(C(=O)c2nc(-c3ccc(Cl)cc3)oc2-c2ccccc2[N+](=O)[O-])CC1 [Compound 248, (2-(4-Chlorophenyl)-5-(2-nitrophenyl)oxazol-4-yl)(4-(2-(dimethylamino)ethyl)piperazin-1-yl)methanone]",,,,,,,Cellular viability (%) (+) microsome ([3]; at 50 μM): 31 at %; Cellular viability (%) (−) microsome ([3]; at 50 μM): 19 at %
47,0.35,,"CCNC(=O)c1nc(-c2ccc(SC)cc2)oc1-c1ccccc1 [Compound 316, N-Ethyl-2-(4-(methylthio)phenyl)-5-phenyloxazole-4-carboxamide]",69,77,100,84,,,inhibition at 0.1 µM [2]: 25%
7,3.7,70,"CN(C)CCNC(=O)c1nc(-c2cccc(Cl)c2)oc1-c1ccccc1 [Compound 240, 2-(3-Chlorophenyl)-N-(2-(dimethylamino)ethyl)-5-phenyloxazole-4-carboxamide]",6,44,,,50,45,"CC50 at 24 h [4, 6]: 6.36 µM; CC50 at 24 h [4, 7]: 5.46 µM"
31,0.86,105,"CSc1ccc(-c2nc(C(=O)NCCN(C)C)c(-c3ccccc3)o2)cc1 [Compound 271, N-(2-(Dimethylamino)ethyl)-2-(4-(methylthio)phenyl)-5-phenyloxazole-4-carboxamide]",14,69,,,52,45,"CC50 at 24 h [4, 6]: 6.12 µM; CC50 at 24 h [4, 7]: 3.74 µM"
